This is an account of results in US5342612A, “Compositions for the treatment of mammalian diseases” (priority 1991, dated 1994).

Data set [1] concerns Staphylococcus aureus (Newbould 305). In words: Potentiation of lysostaphin bacteriostatic activity (minimum inhibitory concentration). In kind it is cell-based. Conditions: in saline, diluted in MHB. The protocol: Dissolved in 15% w/v poloxamer 407 NF is 512 μg/mL of lysostaphin by adding 487.4 μl of a 2.5 mg/mL aqueous solution to 1512.6 μl of the 15% w/v poloxamer 407 NF in sPBS. The lysostaphin is first filtered through a 0.22 μ filter and the concentration is adjusted (1.19 factor). The poloxamer 407 NF is mixed overnight and filtered through a 0.22μ cellulose acetate filter. In a similar fashion, preparations with other vehicles such as lysostaphin in triacetin are prepared.
Lysostaphin in Mueller-Hinton Broth is run as a control and a 512 μg/mL solution is prepared from the same 2.5 mg/mL solution as the poloxamer 407 NF mixture. Placed in 189 μl of Mueller-Hinton Broth is 61 μl of the 2.5 mg/mL solution.
Placed in the first well of a 12 well row is 100 μl of each mixture and serial two-fold dilutions are performed in Mueller-Hinton Broth through row 12. Following dilution, 50 μl of inoculum is added to each well. Inoculum is prepared by inoculating a tube of trypticase soy broth (TSB) from an overnight trypticase soy agar (TSA) culture containing a 10% sheep blood plate of Staphylococcus aureus (Newbould 305). The tube is incubated for 5 hours at 37° C. with constant agitation. […]
The inhibitory profile as measured by the reduction of the optical density at 650 nm in the presence of the vehicle is then compared to that of lysostaphin diluted in Mueller-Hinton Broth. […]

The test system of another data set is S. aureus. In words: Potentiation of lysostaphin bactericidal activity (minimum bactericidal concentration assay, survival of S. aureus). In kind it is cell-based, Staphylococcus aureus. Conditions: 18 h. How it is done:
Preparation of 50% glycerol and 15% poloxamer 407 NF plus lysostaphin is as follows: The lysostaphin stock of 2.5 mg/mL is thawed and filtered through a 0.22μ filter. [formula]
In a similar fashion, triacetin solutions are also prepared.
Mueller-Hinton Broth containing lysostaphin is prepared as above. Penicillin in Mueller-Hinton Broth is prepared to serve as a control. Starting with a frozen 2.5 mg/mL stock solution the penicillin is diluted as follows: 400 μl of 2.5 mg/mL is placed in 600 μl of Mueller-Hinton Broth to yield a 1000 μg/mL solution. Added to 3744 μl of Mueller-Hinton Broth is 256 μl of the 1000 μg/mL solution to yield a 64 μg/mL solution.
Placed in sterile tubes are 2 mL of the vehicle and lysostaphin; Mueller-Hinton Broth plus lysostaphin; and Mueller-Hinton Broth plus penicillin. Serial two-fold dilutions are performed by hand using 1 mL of the appropriate vehicle as the diluent. Lysostaphin and penicillin dilutions range from 64 μg/mL to 0.25 μg/mL. All combinations are done in duplicate. The Staphylococcus aureus is grown for 5 hours in 5 mL of TSB and 0.1 mL is removed and placed in 9.9 mL of saline. Each tube is inoculated with 100 μl of the diluted culture. Plate counts are performed on the inoculum. All tubes are incubated for 18 hours at 37° C. with constant agitation. Following incubation, each dilution of lysostaphin in the vehicles or Mueller-Hinton Broth and penicillin in Mueller-Hinton Broth is diluted in phosphate buffered saline to 10^-2, 10^-4 and 10^-6.
Plated on a TSA with 10% sheep blood is 100 μl of the undilute and of each dilution. The plates are inverted and incubated for 18 hours. Following incubation, the number of colonies on each plate is counted.
The vehicles which inhibit the growth or are moderately bactericidal to S. aureus by themselves are unable to be evaluated using the MIC procedure. For these vehicles a minimum bactericidal concentration assay (MBC) is performed. This assay in conjunction with the previous MIC data distinguish bacteriostatic effects versus bactericidal effects of the vehicles. Various formulations are mixed with lysostaphin at a final concentration of 32 μg/mL. Ten, serial two- or four-fold dilutions of the lysostaphin are performed in the vehicle and each tube inoculated with a 2-6 x's 106 S. aureus CFU's (bacterial colony-forming units). Samples are removed after 18 hours and plated on blood agar plates.

Another data set concerns S. aureus mastitis. Conditions: Oldham et al.; in words; cited from earlier work.
Data set [2] has as its system 9C127 (T-cell hybridoma cell line). The data set is described as follows: Toxicity of formulations on mammalian cell lines (cell viability, Coulter). The format is cell-based, murine. The protocol: (§1) Cell Lines: A20: B-cell tumor cell line 9C127: T-cell hybridoma cell line LB/62287: B-cell lymphoma cell line P388.D1: Macrophage tumor cell line
(§2) Cell lines (1×10^5 /well; >85% viability) are cultured in 24 well flat bottom plates in RPMI® medium (Gibco Laboratories, Grand Island, N.Y.) supplemented with 10% fetal calf serum, streptomycin (100 μg/mL) and penicillin (100 U/mL). Cultures are incubated (37° C., 10% CO2) with the following concentrations of vehicles:
(§3) c) 1.0%, 0.1% or 0.01% Triacetin or IMWITOR®
(§4) After a 72 hour or 6 hour incubation period, cells are harvested and counted by the Coulter Counter (Northwell Drive, England). Cell viability is determined using a Coulter Channelyzer.
(§5) The relative toxicity of the sample formulations to estimate the relative degree of toxicity for in vivo administration is carried out in vitro with the mammalian cell lines. Various concentrations of the vehicles are incubated for either 6 or 24 hours with the different mammalian cell lines. Immediate toxicity is evaluated at 6 hours by quantitating the number of dead cells in treated wells as compared to the untreated controls. Long term toxicity effects as well as effects which may inhibit cell growth are evaluated by measuring the relative degree of proliferation after an additional 48 hours incubation with ^3 H-thymidine.

Data set [3] has as its system A20 (B-cell tumor cell line). The data set is described as above. The format is cell-based, murine. The protocol: as §1, §2, §3, §4, §5
Data set [4] relates to P388.D1 (Macrophage tumor cell line). The data set is described as follows: in vitro. The format is cell-based, murine. How it is done:
as §1, §2, §3, §4, §5

The mark [5] stands for this setting: lysostaphin (or penicillin) 1 μg/mL.
The mark [6] stands for this setting: lysostaphin (or penicillin) 4 μg/mL.

For the substance “Lysostaphin: gene product of Staphylococcus simulans, enzymatically degrading the polyglycine crosslinks of the cell wall”, the “Control MIC of lysostaphin” value in data set [1] (control of the PLURONIC F127 line) was 0.125; in data set [1] (control of the triacetin line), 1.0. Moreover, the “Survival of S. aureus CFU (Log 10) in Vehicles” value is 9.7 CFU (Log 10) in the data set with S. aureus (lysostaphin 0.25 μg/mL); 3.6 CFU (Log 10) with S. aureus (lysostaphin 2 μg/mL); 8.6 CFU (Log 10) with S. aureus (lysostaphin (or penicillin) 0.5 μg/mL); 8.1 CFU (Log 10) in the data set with S. aureus (setting [5]); 4.8 CFU (Log 10) in the data set with S. aureus (setting [6]); 3.3 CFU (Log 10) in the data set on S. aureus (lysostaphin (or penicillin) 8 μg/mL). Also, the “Killing of S. aureus (footnote class)” value in the data set with S. aureus (lysostaphin 2 μg/mL) was “^3 (Greater than 99.99% killing of S. aureus)”; in the data set with S. aureus (lysostaphin 8 μg/mL) it was “^3 (Greater than 99.99% killing of S. aureus)”; in the data set with S. aureus (setting [5]) it was “^2 (Greater than 95% killing of S. aureus)”; with S. aureus (setting [6]), “^3 (Greater than 99.99% killing of S. aureus)”. The “Therapeutic efficacy compared with CEFA-LAK” value in the data set on S. aureus mastitis is “not equivalent to the commercially available product CEFA-LAK®”.
Consider PLURONIC ® F 127, for which the “Relative Toxicity at 6 Hours” value in data set [2], in data set [3] and in data set [4] was “-” each time.
